The values that follow come from US20240366587A1, “USES OF A SOMATOSTATIN MODULATOR FOR THE TREATMENT OF DISEASE” (Crinetics Pharmaceuticals, Inc., priority 2021, published 2024).

One data set concerns IGF-1. Briefly: Phase 2 clinical trials of acromegaly patients previously treated with LA-SRLs: steady state IGF-1 change by dose. To be noted: baseline = IGF-1 at last LA-SRL injection. It is filed as in vivo, human. The text has this:
The switch to Compound A-monohydrochloride occurred 4 weeks after last LA-SRL injection.

Data set [1] can be described thus: Phase 1 single-and-multiple-dose study in healthy volunteers: oral glucose tolerance test / safety. It is filed as in vivo, human. To be noted: for glucose concentration by 2 hours post challenge / peak glucose concentration 1 hour post oral glucose challenge: one subject. Here is the method:
A phase 1, randomized, double-blind, placebo-controlled, single and multiple ascending dose study was performed with oral Compound A at a single study center. Inclusion criteria included age 18 to 50 years; body mass index of 18-30 kg/m^2; and if female, postmenopausal by history or surgery. Exclusion criteria included presence of significant medical history.
In the single-dose phase, participants were randomized 6:2 to Compound A (1.25, 2.5, 5, 10, 20, 40, and 60 mg) or placebo in 7 cohorts (S1 to S7). Cohorts comparing oral bioavailability of solution versus capsules and the effect of a standardized high-fat, high-calorie breakfast on oral bioavailability of the capsule formulation employed the 10 mg dose level. In the multiple-dose phase, participants were randomized 6:3 to once-daily oral Compound A-HCl capsules or placebo at doses of 5 mg for 7 days (M1, Day Last=Day 7), and 10, 20, and 30 mg daily for 10 days (M2, M3, M4, Day Last=Day 10).
Safety assessments: Safety assessments included monitoring of clinical laboratory tests, cardiovascular safety monitoring (continuous Holter monitoring, ECG, telemetry), and physical examinations conducted at scheduled times throughout the study in the research units as well as post-discharge (up to 9 days after the single-dose, or up to 11 days after the last dose for multiple-dose cohorts). Adverse events and concomitant medications were recorded. Laboratory samples for clinical chemistry, hematology, coagulation tests, and urinalysis were collected under fasted conditions.
In the multiple-dose cohorts, baseline serum TSH, ACTH, and prolactin samples were collected on Day −2, and an oral glucose tolerance test (OGTT) was conducted on Day −7 or earlier. These assessments were repeated on Day 8 (M1) or Day 11 (M2 and subsequent cohorts).
Clinically significant hypoglycemia occurred in 1 subject in Cohort M3 (Compound A-HCl−10 days at 20 mg/day) at 2 and at 3 hours post-glucose challenge, and in 1 subject in Cohort M4 (Compound A-HCl−10 days at 30 mg/day) at 3 hours post-glucose challenge at the baseline assessment (Day −7).

Setting [2] is: Cohort M2 (10 mg/day, 10 days), monohydrochloride.
[3] abbreviates: Cohort M3 (20 mg/day, 10 days), monohydrochloride.

Several values for one entry are separate records, joined by “and”; a condition that tells them apart may be missing. Equal entries are not always repeated.

With `Cl.N#Cc1cccc(-c2ccc3ncc(-c4cc(F)cc(F)c4)c(N4CCC(N)CC4)c3c2)c1O` [Compound A-HCl, 3-[4-(4-amino-piperidin-1-yl)-3-(3,5-difluoro-phenyl)-quinolin-6-yl]-2-hydroxy-benzonitrile monohydrochloride], the “steady state IGF-1 change from baseline” value with IGF-1 (10 and 20 mg per day) is “IGF-1 levels that were above baseline”; with IGF-1 (30/day and 40 mg/day), “changes from baseline of near zero”. Moreover, the “Glucose AUC (0-3 hr) Difference (SE), oral glucose tolerance test” value in data set [1] (healthy volunteers, 7 days - 5 mg/day, Day −7 vs day after last dose) was 3.8 (4.00) h*mmol/L; in data set [1] (healthy volunteers, 10 days - 10 mg/day) it was 2.4 (3.19) h*mmol/L; in data set [1] (healthy volunteers, 10 days - 20 mg/day) it was 5.1 (3.12) h*mmol/L; in data set [1] (healthy volunteers, 10 days - 30 mg/day, monohydrochloride) it was 3.2 h*mmol/L and 3.2 (1.34) h*mmol/L. For the same molecule, in data set [1] (healthy volunteers, multiple dosing up to 30 mg), the “change in fasting plasma glucose” value is given as “wasn't significantly changed”. For the same molecule, the “treatment emergent adverse events of hyperglycemia” value in data set [1] (healthy volunteers, repeated daily dosing 5-30 mg, OGTT after 10 days of dosing) was “two treatment emergent adverse effects (TEAEs) of asymptomatic hyperglycemia occurred”. Also, the “glucose concentration by 2 hours post challenge” value was 77 mg/dL and 4.3 mmol/L in data set [1] (setting [2]); 5.8 mmol/L and 104 mg/dL in data set [1] (setting [3]). For the same molecule, the “peak glucose concentration 1 hour post oral glucose challenge” value in data set [1] (setting [2]) was 12.4 mmol/L and 223 mg/dL; in data set [1] (setting [3]), 12.2 mmol/L and 220 mg/dL.
